Results from ChEMBL document CHEMBL1914384, “Design, synthesis, and structure-activity relationship studies of highly potent novel benzoxazinyl-oxazolidinone antibacterial agents” (J Med Chem, 2011).
≈ marks a conversion by molar mass, not a printed value.

How the values were obtained:
Enterococcus faecalis [1] = experiment: Antibacterial activity against Enterococcus faecalis after 16 hrs by agar dilution method; format: functional
[2] = Oral bioavailability in Sprague-Dawley rat at 15 mg/kg by LC-MS analysis; format: ADME, organism-based; conditions: in vivo
[3] = Tmax in Sprague-Dawley rat at 15 mg/kg, po by LC-MS analysis; format: ADME, organism-based; design: dose 15 mg/kg, route oral; conditions: in vivo
Staphylococcus aureus [4] = experiment: Antibacterial activity against methicillin-resistant Staphylococcus aureus after 16 hrs by agar dilution method; format: functional
[5] = system: Staphylococcus epidermidis; experiment: Antibacterial activity against linezolid-resistant Staphylococcus epidermidis after 16 hrs by agar dilution method; format: functional
[6] = AUC (0 to infinity) in Sprague-Dawley rat at 15 mg/kg, po by LC-MS analysis; format: ADME, organism-based; design: time infinity, dose 15 mg/kg, route oral; conditions: plasma
Enterococcus faecium [7] = experiment: Antibacterial activity against Linezolid-resistant Enterococcus faecium after 16 hrs by agar dilution method relative to Linezolid; format: functional
Staphylococcus aureus [8] = experiment: Antibacterial activity against Staphylococcus aureus ATCC 19636 infected in mouse systemic infection model administered orally 1 hour after infection measured 48 hrs post-treatment relative to Linezolid; format: functional
[9] = Clearance in Sprague-Dawley rat at 15 mg/kg, po by LC-MS analysis; format: ADME, organism-based; design: dose 15 mg/kg, route oral; conditions: in vivo
Staphylococcus aureus [10] = experiment: Antibacterial activity against Linezolid-resistant Staphylococcus aureus after 16 hrs by agar dilution method relative to Linezolid; format: functional
[11] = Clearance in Sprague-Dawley rat at 15 mg/kg, iv by LC-MS analysis; format: ADME, organism-based; design: dose 15 mg/kg, route intravenous; conditions: in vivo
[12] = system: Staphylococcus epidermidis; experiment: Antibacterial activity against methicillin-resistant Staphylococcus epidermidis after 16 hrs by agar dilution method; format: functional
Staphylococcus aureus [13] = experiment: Antibacterial activity against linezolid-resistant Staphylococcus aureus after 16 hrs by agar dilution method; format: functional
[14] = system: Staphylococcus epidermidis; experiment: Antibacterial activity against Linezolid-resistant Staphylococcus epidermidis after 16 hrs by agar dilution method relative to Linezolid; format: functional
Enterococcus faecalis [15] = experiment: Antibacterial activity against Linezolid-resistant Enterococcus faecalis after 16 hrs by agar dilution method relative to Linezolid; format: functional
Staphylococcus aureus [16] = experiment: Antibacterial activity against Staphylococcus aureus ATCC 29213 after 16 hrs by agar dilution method; format: functional; conditions: ATCC 29213, 16 h
Staphylococcus aureus [17] = experiment: Antibacterial activity against Staphylococcus aureus ATCC 19636 infected in mouse systemic infection model administered orally 1 hour after infection measured 48 hrs of post-treatment; format: functional; conditions: ATCC 19636, po
Staphylococcus aureus [18] = experiment: Antibacterial activity against methicillin-resistant Staphylococcus aureus ATCC 33591 infected in NSA mouse neutropenic model administered orally 1 hour after infection measured 48 hrs post-treatment relative to Linezolid; format: functional
Enterococcus faecium [19] = experiment: Antibacterial activity against linezolid-resistant Enterococcus faecium after 16 hrs by agar dilution method; format: functional
Enterococcus faecalis [20] = experiment: Antibacterial activity against linezolid-resistant Enterococcus faecalis after 16 hrs by agar dilution method; format: functional
[21] = Cmax in Sprague-Dawley rat at 15 mg/kg, po by LC-MS analysis; format: ADME, organism-based; design: dose 15 mg/kg, route oral; conditions: in vivo
[22] = Cmax in Sprague-Dawley rat at 15 mg/kg, iv by LC-MS analysis; format: ADME, organism-based; design: dose 15 mg/kg, route intravenous; conditions: in vivo
[23] = Half life in Sprague-Dawley rat at 15 mg/kg, po by LC-MS analysis; format: ADME, organism-based; design: dose 15 mg/kg, route oral; conditions: in vivo
Staphylococcus aureus [24] = experiment: Antibacterial activity against methicillin-resistant Staphylococcus aureus ATCC 33591 infected in NSA mouse neutropenic model administered orally 1 hour after infection measured 48 hrs post-treatment; format: functional; conditions: ATCC 33591, po
Streptococcus pneumoniae = experiment: Antibacterial activity against penicillin-resistant Streptococcus pneumoniae after 16 hrs by agar dilution method; format: functional

Work on `CC(=O)NC[C@@H]1OC(=O)N2c3ccc(-c4ccc(C#N)nc4)cc3OC[C@@H]12` yielded an MIC (Enterococcus faecalis [1]) of 0.5 µg/mL (≈ 1.37 µM), a bioavailability [2] of 81% and a Tmax [3] of 4 h. The MIC (Staphylococcus aureus [4]) was 0.25 µg/mL (≈ 0.686 µM), the MIC [5] was 1 µg/mL (≈ 2.74 µM) and the AUC(0-inf) [6] was 66000 ng·h/mL. For the same molecule, the “fold change (FC)” value (Enterococcus faecium [7]) was 8, the “fold change (FC)” value (Staphylococcus aureus [8]) was 4 and the CL/F [9] was 3.82 mL/min/kg. The “fold change (FC)” value (Staphylococcus aureus [10]) was 8, the clearance [11] was 3.07 mL/min/kg and the MIC [12] was 0.25 µg/mL (≈ 0.686 µM). For the same molecule, the MIC (Staphylococcus aureus [13]) was 2 µg/mL (≈ 5.49 µM), the “fold change (FC)” value [14] was 8 and the “fold change (FC)” value (Enterococcus faecalis [15]) was 8. For the same molecule, the MIC (Staphylococcus aureus [16]) was 0.125 µg/mL (≈ 0.343 µM), the ED50 (Staphylococcus aureus [17]) was 2.5 mg/kg and the “fold change (FC)” value (Staphylococcus aureus [18]) was 3. It also gave an MIC (Enterococcus faecium [19]) of 0.5 µg/mL (≈ 1.37 µM), an MIC (Enterococcus faecalis [20]) of 1 µg/mL (≈ 2.74 µM) and a Cmax [21] of 5000 ng/mL. It also gave a Cmax [22] of 7000 ng/mL, a half-life [23] of 5.5 h and an ED50 (Staphylococcus aureus [24]) of less than 5 mg/kg. For the same molecule, the MIC (Streptococcus pneumoniae) was 0.25 µg/mL (≈ 0.686 µM).
